Measured values: ChEMBL document CHEMBL4613281, “Missing Selectivity of Targeted 4β-Phorbol Prodrugs Expected to be Potential Chemotherapeutics” (2020)
The source made the active and inactive calls. No cut-off for these calls is given here. Starred links: 1 amine or outer side, 2 acyl side, 3 side chain; linkers in the order of their positions; H or OH if unused. Non-standard residues stand in square brackets, D forms with d. Residues, ends and D or L forms follow the SMILES beside them. *: point of attachment. X1 = CC(=O)O[C@@]12[C@H](O*)[C@@H](C)[C@@]3(O)[C@@H](C=C(CO)C[C@]4(O)C(=O)C(C)=C[C@@H]34)[C@@H]1C2(C)C; 12Ado = NCCCCCCCCCCCC(=O)O; Morpholide = C1CN(*)CCO1; CO = O=C([*:1])[*:2]

Columns and labels:
[1] = tested on: CWR22R; assay: Up regulation of PCKalpha in human 22Rv1 cells incubated for 72 hrs by Western blot analysis; assay type: functional, cell-based
[2] = target: T1, Protein kinase C (PKC) (Homo sapiens) (UniProt O94806+P41743+P17252+P05129+Q05655+P05771+Q05513+Q02156+P24723+Q15139+Q04759); assay: Activation of PKC in human DU145 cells assessed as increase in ERK1/ERK2 phosphorylation at 20 uM incubated for 30 mins by Western blot analysis; assay type: cell-based; details: DU-145
[3] = tested on: LNCaP; assay: Cytotoxicity against human LNCAP cells assessed as effect on cell membrane incubated for 72 hrs by LDH assay; assay type: functional, cell-based
[4] = tested on: CWR22R; assay: Up regulation of PCKdelta in human 22Rv1 cells incubated for 72 hrs by Western blot analysis; assay type: functional, cell-based
[5] = tested on: PC-3; assay: Antiproliferative activity against human PC3 cells at 40 uM incubated for 72 hrs by MTT assay relative to control; assay type: functional
[6] = tested on: CWR22R; assay: Up regulation of PCKalpha in human 22Rv1 cells at 20 uM incubated for 24 hrs by Western blot analysis; assay type: functional, cell-based
[7] = tested on: PC-3; assay: Cytotoxicity against human PC3 cells assessed as effect on cell membrane incubated for 72 hrs by LDH assay; assay type: functional, cell-based
[8] = tested on: CWR22R; assay: Antiproliferative activity against human 22Rv1 cells at 40 uM incubated for 72 hrs by MTT assay relative to control; assay type: functional
[9] = tested on: DU-145; assay: Cytotoxicity against human DU145 cells assessed as effect on cell membrane incubated for 72 hrs by LDH assay; assay type: functional, cell-based
[10] = tested on: CWR22R; assay: Cytotoxicity against human 22Rv1 cells assessed as effect on cell membrane incubated for 72 hrs by LDH assay; assay type: functional, cell-based
[11] = target: Protein kinase C alpha type (Homo sapiens) (UniProt P17252); assay: Displacement of [3H]PDBu from recombinant human PKCalpha expressed in baculovirus infected Sf9 insect cells incubated for 10 mins by liquid scintillation counting method
[12] = target: T1, Protein kinase C (PKC) (Homo sapiens); assay: Activation of PKC in human 22Rv1 cells assessed as increase in ERK1/ERK2 phosphorylation at 20 uM incubated for 30 mins by Western blot analysis; assay type: cell-based; details: CWR22R
[13] = tested on: CWR22R; assay: Up regulation of PSMA in human 22Rv1 cells incubated for 72 hrs by Western blot analysis; assay type: functional, cell-based
[14] = tested on: PC-3; assay: Antiproliferative activity against human PC3 cells incubated for 72 hrs by MTT assay; assay type: functional, cell-based
[15] = tested on: LNCaP; assay: Antiproliferative activity against human LNCAP cells at 40 uM incubated for 72 hrs by MTT assay relative to control; assay type: functional
[16] = tested on: CWR22R; assay: Antiproliferative activity against human 22Rv1 cells incubated for 72 hrs by MTT assay; assay type: functional, cell-based
[17] = tested on: DU-145; assay: Antiproliferative activity against human DU145 cells incubated for 72 hrs by MTT assay; assay type: functional, cell-based
[18] = tested on: LNCaP; assay: Antiproliferative activity against human LNCAP cells incubated for 72 hrs by MTT assay; assay type: functional, cell-based
[19] = tested on: DU-145; assay: Antiproliferative activity against human DU145 cells at 40 uM incubated for 72 hrs by MTT assay relative to control; assay type: functional
[20] = target: T1, Protein kinase C (PKC) (Homo sapiens); assay: Activation of PKC in human 22Rv1 cells assessed as increase in ERK1/ERK2 phosphorylations at 10 nM incubated for 30 mins by Western blot analysis; assay type: cell-based; details: CWR22R
[21] = target: T1, Protein kinase C (PKC) (Homo sapiens); assay: Activation of PKC in human DU145 cells assessed as increase in ERK1/ERK2 phosphorylation at 10 nM incubated for 30 mins by Western blot analysis; assay type: cell-based; details: DU-145
[22] = tested on: LNCaP; assay: Antiproliferative activity against human LNCAP cells incubated for 72 hrs in presence of pan-PKC inhibitor Go6983 by MTT assay; assay type: functional, cell-based
[23] = tested on: LNCaP; assay: Antiproliferative activity against human LNCAP cells at 20 to 40 uM incubated for 72 hrs by MTT assay relative to control; assay type: functional
[24] = tested on: DU-145; assay: Antiproliferative activity against human DU145 cells at 1 to 40 uM incubated for 72 hrs by MTT assay; assay type: functional, cell-based
[25] = tested on: LNCaP; assay: Antiproliferative activity against human LNCAP cells at 1 to 40 uM incubated for 72 hrs by MTT assay; assay type: functional, cell-based
[26] = tested on: CWR22R; assay: Antiproliferative activity against human 22Rv1 cells at 1 to 40 uM incubated for 72 hrs by MTT assay; assay type: functional, cell-based
[27] = tested on: PC-3; assay: Antiproliferative activity against human PC3 cells at 1 to 40 uM incubated for 72 hrs by MTT assay; assay type: functional, cell-based

Row | SMILES | Activity [1] | Activity [2] | Activity [3] | Activity [4] | Activity [5] | Activity [6] | Activity [7] | Activity [8] | Activity [9] | Activity [10] | [3H]PDBu displacement (active/not active) [11] | Activity [12] | Activity [13] | Activity [15] | also measured
1 | CC(=O)NCC(=O)N[C@@H](CCCCN)C(=O)N[C@@H](C)C(=O)N[C@@H](Cc1ccccc1)C(=O)N[C@@H](CCCNC(=N)N)C(=O)N[C@@H](CCCNC(=N)N)C(=O)N[C@@H](CC(C)C)C(=O)NCCCCCCCCCCCC(=O)O[C@@H]1[C@@H](C)[C@@]2(O)[C@@H](C=C(CO)C[C@]3(O)C(=O)C(C)=C[C@@H]23)[C@@H]2C(C)(C)[C@]12OC(C)=O (Ac-GKAFRRL[12Ado]-X1) | inactive | Active | inactive | inactive | 15% | inactive | inactive | 25% | inactive | inactive | Active | Active | inactive |  | 
2 | CC(=O)O[C@@]12[C@H](OC(=O)CCCCCCCCCCCNC(=O)C[C@H](N)C(=O)N[C@@H](CCC(=O)N[C@@H](CCC(=O)N[C@@H](CCC(=O)N[C@@H](CCC(=O)O)C(=O)O)C(=O)O)C(=O)O)C(=O)O)[C@@H](C)[C@@]3(O)[C@@H](C=C(CO)C[C@]4(O)C(=O)C(C)=C[C@@H]34)[C@@H]1C2(C)C | inactive | Active | inactive | inactive | 10% | Active | inactive |  | inactive | inactive | Active | inactive | inactive |  | 
3 | C/C=C(/C)C(=O)O[C@H]1C(C)=C2[C@H]([C@@H]1OC(=O)CCCCCCC)[C@@](C)(OC(C)=O)C[C@H](OC(=O)CCCCCCCCCCCNC(=O)C[C@H](N)C(N)=O)[C@@]1(O)[C@H]2OC(=O)[C@@]1(C)O |  |  |  |  | 15% |  |  | 27% |  |  |  |  |  | 4% | Activity [14]: Dose-dependent effect; Activity [16]: Dose-dependent effect; Activity [17]: Dose-dependent effect; Activity [18]: Dose-dependent effect; Activity [19]: 20%
4 | CC(=O)O[C@@]12[C@H](OC(=O)CCCCCCCCCCCNC(=O)[C@@H](N)CC(C)C)[C@@H](C)[C@@]3(O)[C@@H](C=C(CO)C[C@]4(O)C(=O)C(C)=C[C@@H]34)[C@@H]1C2(C)C | inactive | Active | inactive | inactive | 30% | inactive | inactive | 10% | inactive | inactive | Active | Active | inactive | 60% | Activity [19]: 40%
5 | CCCCCCCCCCCCCC(=O)O[C@@H]1[C@@H](C)[C@@]2(O)[C@@H](C=C(CO)C[C@]3(O)C(=O)C(C)=C[C@@H]23)[C@@H]2C(C)(C)[C@]12OC(C)=O |  |  |  |  |  |  |  |  |  |  | Active |  |  |  | Activity [20]: Active; Activity [21]: Active
6 | CC(=O)O[C@@]12[C@H](OC(=O)CCCCCCCCCCCNC(=O)[C@H](CC(C)C)NC(=O)[C@H](CCC(N)=O)NC(=O)[C@H](CC(C)C)NC(=O)[C@H](CCCCN)NC(=O)[C@H](CO)NC(=O)[C@H](CO)NC(=O)[C@H](Cc3cnc[nH]3)NC(=O)N3CCOCC3)[C@@H](C)[C@@]3(O)[C@@H](C=C(CO)C[C@]4(O)C(=O)C(C)=C[C@@H]34)[C@@H]1C2(C)C ({Morpholide-CO}-HSSKLQL[12Ado]-X1) |  | Active | inactive |  |  |  | inactive |  | inactive | inactive | inactive | Active |  |  | Activity [22]: inactive; Activity [23]: 32%
7 | C/C=C(/C)C(=O)O[C@H]1C(C)=C2[C@H]([C@@H]1OC(=O)CCCCCCC)[C@@](C)(OC(C)=O)C[C@H](OC(=O)CCCCCCCCCCCNC(=O)C[C@H](N)C(=O)N[C@@H](CCC(=O)N[C@@H](CCC(=O)N[C@@H](CCC(=O)N[C@@H](CCC(=O)O)C(=O)O)C(=O)O)C(=O)O)C(=O)O)[C@@]1(O)[C@H]2OC(=O)[C@@]1(C)O [MIPSAGARGIN] |  |  |  |  | 32% |  |  | 40% |  |  |  |  |  | 35% | 
8 | CC(=O)O[C@@]12[C@H](OC(=O)CCCCCCCCCCCNC(=O)C[C@H](N)C(C)C)[C@@H](C)[C@@]3(O)[C@@H](C=C(CO)C[C@]4(O)C(=O)C(C)=C[C@@H]34)[C@@H]1C2(C)C | inactive | Active | inactive | inactive |  | Active | inactive |  | inactive | inactive | Active | Active | inactive |  | Activity [24]: inactive; Activity [25]: inactive; Activity [26]: inactive; Activity [27]: inactive
